Assay results published in US20240408071A1, “NOVEL COMBINATION OF SEROTONIN RECEPTOR (5-HTR2B) ANTAGONIST AND AN IMMUNOMODULATOR AND CHEMOTHERAPEUTIC DRUGS FOR INHIBITION OF CANCER” (NATIONAL CENTRE FOR CELL SCIENCE, priority 2021, published 2024).

How the values were obtained:
MC38 colon cancer cells = assay: MC38 colon tumor growth (tumor volume) in C57BL/6 mice; type: in vivo; conditions: sertraline hydrochloride 15 mg/kg/week (FIG. 7C)
Protocol: Tumor volumes were measured and plotted. (B) MC38 colon cancer cells were injected subcutaneously into the right flank of C57BL/6 mice. After seven days when tumors became palpable, one group was treated with 5-HTR7 antagonist SB-269970 (n=6 mice; 3 mg/kg/day) or left untreated (n=6 mice). Tumor volume was measured and plotted. (C) After seven days of the setting of tumor growth, one group was treated with a serotonin transporter blocker (SSRI) sertraline hydrochloride (n=6 mice; 15 mg/kg/week) or left untreated (n=6 mice). Tumor volume was measured and plotted. (D) C57BL/6 mice were given subcutaneously injected MC38 cells. After seven days of tumor growth, one group of mice was treated with different doses of 5-HTR2B antagonist SB-215505 (n=6). Tumor volume was measured and plotted. (E) C57BL/6 mice were given subcutaneously injected MC38 cells. After seven days of the tumor growth, one group of mice was treated with different doses of 5-HTR2B antagonist SB-215505 (n=6), one group treated with 5-HTR2B agonist BW-723C86 (n=6; 4 mg/kg/day). Tumor volume was measured and plotted. (F) MC38 cells were subcutaneously injected into C57BL/6 mice. After seven days when the tumor became palpable in mice, one group of mice was treated with FDA-approved 5-HTR2B antagonist cariprazine (Carispec; Sun pharma) via oral gavage (n=5 mice; dose 5 mg/kg body weight/day) or left untreated (n=5 mice). Tumor growth was measured and plotted. […] All the statistical analysis was performed using Student's ‘t’ test or two-way ANOVA using Sidak's multiple comparison test. *P<0.05; **P<0.01; ***P<0.00; ****P<0.0001 Error bar represents mean±standard error of means (SEM).

PD-L1 = assay: Serum PD-L1 ELISA in MC38 tumor-bearing mice; type: in vivo, C57BL/6J mice; conditions: MC38-induced colon tumor-bearing mice, SSRI treatment
Protocol: FIG. 13 depicts 5-HTR2B signaling promotes PD-L1 expression on the MC38 cell line in vitro: (A-B) MC38 cells are treated with 5-HTR2B agonist (BW-723C86-50 μM), serotonin (100 μM), and 5-HTR2B antagonist (RS-127445-50 μM) for 72 hours, and the PD-L1 expression was checked by flow cytometry and the percentage of PD-L1^+ MC38 cells was plotted. (C-D) MFI of PD-L1 from the above experiment were plotted as histogram overlay (C) or as statistical data points (D). (E) Relative PD-L1 mRNA expression in MC38 cells following BW-723C86 and RS-127445 treatment for 48 hours. Here the values are shown as a fold change as compared to control MC38 cells. […] All the statistical analysis was performed using either Student's ‘t’ test or two-way ANOVA using Sidak's multiple comparison test. *P<0.05; **P<0.01; […]; ****P<0.0001 Error bar represents mean±standard error of means (SEM).
(§1) Universal competitive serotonin ELISA kit was purchased from Novus biological (Catalog #NBP2-68127), and ELISA was performed according to the manufacturer's protocol. Mouse PD-L1 DuoSet ELISA kit was procured from the R&D System (Catalog #DY1019-05), and the ELISA was performed according to the manufacturer's guidelines.
To understand it, investigations were done on whether 5-HTR2B signaling also affects the surface expression of molecules that alters inflammatory and cytotoxic immune cells. Among different molecules, PD-L1 is of particular interest as it is an immune checkpoint ligand that affects cytotoxic T-cell responses toward cancer. […] (FIG. 13F).

serotonin = assay: Serum serotonin level in MC38 colon tumor-bearing mice; type: in vivo; conditions: MC38-induced colon tumor-bearing mice, SSRI treatment
Protocol: This secretory variant of PD-L1 is responsible for most of the resistance to the anti-PD-L1 therapy in the tumor.
as §1

Compound: CN[C@H]1CC[C@@H](c2ccc(Cl)c(Cl)c2)c2ccccc21 [sertraline]
- MC38 tumor growth (MC38 colon cancer cells): promotes MC38 tumor growth
- secretory PD-L1 variant level in the serum (PD-L1): enhanced the secretory PD-L1 variant level in the serum
- free serotonin level in the serum (serotonin): increased free serotonin level in the serum
